The source made the active and inactive calls.
Experiments:
[1] = intracellular Trypanosoma cruzi inhibitors in host cells – cell-based, plate reader, cherry-pick samples, set 3, dose response (AID 651818); type: functional;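 also: compounds incubated with infected cells for about four days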
fMet-Leu-Phe receptor = target: T1, fMet-Leu-Phe receptor (Homo sapiens, UniProt P21462); experiment: formyl peptide receptor binders – dose response (AID 519); type: functional
T1 sequence (P21462 whole entry): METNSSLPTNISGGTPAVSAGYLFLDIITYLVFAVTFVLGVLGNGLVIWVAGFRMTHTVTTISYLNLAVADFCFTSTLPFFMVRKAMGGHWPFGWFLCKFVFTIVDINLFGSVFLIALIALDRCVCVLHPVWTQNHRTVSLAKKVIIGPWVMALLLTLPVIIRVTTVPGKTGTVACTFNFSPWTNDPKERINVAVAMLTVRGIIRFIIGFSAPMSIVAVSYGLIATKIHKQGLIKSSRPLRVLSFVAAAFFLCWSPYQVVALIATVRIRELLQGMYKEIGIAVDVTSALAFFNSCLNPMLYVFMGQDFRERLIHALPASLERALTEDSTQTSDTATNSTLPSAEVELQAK

[2] = target: T2, Carboxy-terminal domain RNA polymerase II polypeptide A small phosphatase 1 (Homo sapiens, UniProt Q9GZU7); experiment: CTDSP1 inhibitors, concentration-response, biochemical, absorbance readout, ultra-high-throughput screen actives (AID 540297); type: functional
T2 sequence (Q9GZU7 whole entry): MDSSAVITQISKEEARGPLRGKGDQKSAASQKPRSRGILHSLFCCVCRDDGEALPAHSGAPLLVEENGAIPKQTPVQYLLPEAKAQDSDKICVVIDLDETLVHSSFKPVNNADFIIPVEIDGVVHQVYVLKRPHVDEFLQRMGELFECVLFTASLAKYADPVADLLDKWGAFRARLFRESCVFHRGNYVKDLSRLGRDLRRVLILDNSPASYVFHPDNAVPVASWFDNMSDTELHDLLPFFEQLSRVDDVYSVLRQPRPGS

Leucine aminopeptidase = target: T3, Leucine aminopeptidase (Plasmodium falciparum 3D7, UniProt Q8IL11); experiment: P. falciparum M17LAP inhibitors, primary screen, biochemical, fluorogenic H-Leu-NHMec substrate, 1536-well (AID 1619); type: functional
T3 sequence (Q8IL11 whole entry): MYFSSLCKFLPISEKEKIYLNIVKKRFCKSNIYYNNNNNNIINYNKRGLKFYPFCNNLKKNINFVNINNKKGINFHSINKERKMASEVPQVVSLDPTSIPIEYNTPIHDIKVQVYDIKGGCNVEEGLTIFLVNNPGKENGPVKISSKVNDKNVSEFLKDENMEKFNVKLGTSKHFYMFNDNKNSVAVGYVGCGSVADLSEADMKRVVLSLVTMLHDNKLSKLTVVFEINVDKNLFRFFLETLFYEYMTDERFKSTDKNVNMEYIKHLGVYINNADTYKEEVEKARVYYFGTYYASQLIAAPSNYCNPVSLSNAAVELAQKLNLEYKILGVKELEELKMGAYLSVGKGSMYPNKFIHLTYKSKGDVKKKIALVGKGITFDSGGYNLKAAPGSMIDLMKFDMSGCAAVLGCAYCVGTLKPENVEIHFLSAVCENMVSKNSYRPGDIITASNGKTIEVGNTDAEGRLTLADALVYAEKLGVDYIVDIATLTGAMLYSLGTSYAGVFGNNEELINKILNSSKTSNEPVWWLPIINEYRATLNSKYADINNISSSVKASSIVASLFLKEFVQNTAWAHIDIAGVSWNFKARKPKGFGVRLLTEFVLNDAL

Paired box protein Pax-8 = Paired box protein Pax-8 (Homo sapiens, UniProt Q06710); experiment: PAX8 transcriptional activity inhibition in RMG-I – RMG-I cells, luciferase, cherry-pick, dose response (AID 687027); type: functional, cell-based;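 also: luciferase reporter driven by Pax8 target thyroperoxidase promoter measured by SteadyGlo luminescence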
[3] = OVCAR8 cell viability loss – plate reader, dry powder samples, PAX8 project, dose response (AID 743197); type: functional, cell-based; conditions: OVCAR-8
[4] = target: T4, Endoribonuclease toxin MazF (Escherichia coli K-12, UniProt P0AE70); experiment: activation of MazEF endoribonuclease cleavage – biochemical, fluorescence, single-stranded RNA substrate, uHTS hits, dose response (AID 588481); type: functional
T4 sequence (P0AE70 whole entry): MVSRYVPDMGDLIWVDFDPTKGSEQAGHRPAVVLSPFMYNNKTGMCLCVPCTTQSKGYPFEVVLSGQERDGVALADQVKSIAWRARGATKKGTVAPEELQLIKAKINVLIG

[5] = target: T4, Endoribonuclease toxin MazF; experiment: substrate-only fluorescence increase artefacts – biochemical, single-stranded RNase substrate, counter-screen for MazEF activator project, dose response (AID 588502); type: functional
Genome polyprotein = Genome polyprotein (dengue virus type 2, UniProt P29990); experiment: flavivirus cap methylation enzyme inhibition – biochemical, confirmation dose response, primary screen (AID 588689); type: functional
[6] = target: T5, High affinity choline transporter 1 (Homo sapiens, UniProt Q9GZV3); experiment: human choline transporter blockers, potency – cell-based, 5-point CRC, membrane potential dye, dose response (AID 504840); type: functional
T5 sequence (Q9GZV3 whole entry): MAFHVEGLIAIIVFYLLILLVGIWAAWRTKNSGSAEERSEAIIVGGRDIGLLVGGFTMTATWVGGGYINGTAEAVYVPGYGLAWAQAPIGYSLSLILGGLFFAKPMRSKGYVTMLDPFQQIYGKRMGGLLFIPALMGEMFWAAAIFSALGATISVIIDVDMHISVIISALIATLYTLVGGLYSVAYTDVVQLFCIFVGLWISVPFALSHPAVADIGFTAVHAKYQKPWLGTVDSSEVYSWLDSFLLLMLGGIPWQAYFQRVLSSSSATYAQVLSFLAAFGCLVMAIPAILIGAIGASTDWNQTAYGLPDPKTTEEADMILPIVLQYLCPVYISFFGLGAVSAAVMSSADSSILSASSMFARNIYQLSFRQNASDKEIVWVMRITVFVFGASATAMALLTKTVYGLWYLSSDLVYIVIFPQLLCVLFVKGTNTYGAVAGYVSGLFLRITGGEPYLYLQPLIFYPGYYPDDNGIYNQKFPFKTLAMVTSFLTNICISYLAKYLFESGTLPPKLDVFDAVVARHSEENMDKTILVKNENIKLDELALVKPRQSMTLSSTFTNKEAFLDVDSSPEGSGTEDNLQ

[7] = target: T6, Serine/threonine-protein phosphatase (Candida dubliniensis (strain CD36 / CBS 7987 / NCPF 3949 / NRRLY-17841) (Yeast), UniProt B9W6M3); experiment: blockers of CaCl2-induced CDRE-lacZ signaling – S. cerevisiae, luminescence, secondary, dose response (AID 2388); type: functional, cell-based;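 also: yeast reporter cells carrying a calcineurin-responsive lacZ construct stimulated with calcium chloride; luminescent beta-galactosidase reporter signal in whole cells rather than isolated phosphatase activity; potency for inhibition where a drop in reporter signal means calcineurin blockade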
T6 sequence (B9W6M3 whole entry): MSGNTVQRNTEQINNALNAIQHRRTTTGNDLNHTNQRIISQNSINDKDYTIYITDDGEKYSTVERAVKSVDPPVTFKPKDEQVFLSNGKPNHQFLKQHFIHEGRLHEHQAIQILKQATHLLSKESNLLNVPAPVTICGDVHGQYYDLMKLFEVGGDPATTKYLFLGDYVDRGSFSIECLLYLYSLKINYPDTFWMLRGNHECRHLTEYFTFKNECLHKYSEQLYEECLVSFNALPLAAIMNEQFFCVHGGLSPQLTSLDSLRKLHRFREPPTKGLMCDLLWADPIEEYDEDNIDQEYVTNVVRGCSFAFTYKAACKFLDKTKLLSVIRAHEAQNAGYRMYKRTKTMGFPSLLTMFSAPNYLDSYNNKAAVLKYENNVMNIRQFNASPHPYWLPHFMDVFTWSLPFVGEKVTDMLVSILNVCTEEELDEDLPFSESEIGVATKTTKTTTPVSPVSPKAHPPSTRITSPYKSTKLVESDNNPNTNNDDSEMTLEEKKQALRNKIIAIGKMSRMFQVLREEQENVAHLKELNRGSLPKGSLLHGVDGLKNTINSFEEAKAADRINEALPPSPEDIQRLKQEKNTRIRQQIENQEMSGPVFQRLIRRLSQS

[8] = NIH-3T3 fibroblast cytotoxicity, dose response, cytotoxicity control, cell-based, fluorescence, Alamar Blue, secondary assay (AID 2327); type: functional;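 also: NIH-3T3 mouse fibroblasts cultured with fluconazole at 8 µg/mL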
[9] = fluconazole-exposed Candida albicans growth modulators – fluorescence, retest, confirmation (AID 2467); type: functional, cell-based
[10] = target: ATP-dependent molecular chaperone HSP82 (Candida albicans (strain WO-1) (Yeast), UniProt C4YTQ8); experiment: steroid-induced GRE reporter decrease in yeast – S. cerevisiae, luminescence, Hsp90 inhibitor project, dose response (AID 2400); type: functional, cell-based;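 also: beta-galactosidase luminescence from glucocorticoid response element reporter as proxy for Hsp90 function; inhibitor potency where signal loss means Hsp90 inhibition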
Estrogen receptor = target: T7, Estrogen receptor (Homo sapiens, UniProt P03372);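 also: potency for inhibiting coactivator peptide recruitment to the receptor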
T7 sequence (P03372 whole entry): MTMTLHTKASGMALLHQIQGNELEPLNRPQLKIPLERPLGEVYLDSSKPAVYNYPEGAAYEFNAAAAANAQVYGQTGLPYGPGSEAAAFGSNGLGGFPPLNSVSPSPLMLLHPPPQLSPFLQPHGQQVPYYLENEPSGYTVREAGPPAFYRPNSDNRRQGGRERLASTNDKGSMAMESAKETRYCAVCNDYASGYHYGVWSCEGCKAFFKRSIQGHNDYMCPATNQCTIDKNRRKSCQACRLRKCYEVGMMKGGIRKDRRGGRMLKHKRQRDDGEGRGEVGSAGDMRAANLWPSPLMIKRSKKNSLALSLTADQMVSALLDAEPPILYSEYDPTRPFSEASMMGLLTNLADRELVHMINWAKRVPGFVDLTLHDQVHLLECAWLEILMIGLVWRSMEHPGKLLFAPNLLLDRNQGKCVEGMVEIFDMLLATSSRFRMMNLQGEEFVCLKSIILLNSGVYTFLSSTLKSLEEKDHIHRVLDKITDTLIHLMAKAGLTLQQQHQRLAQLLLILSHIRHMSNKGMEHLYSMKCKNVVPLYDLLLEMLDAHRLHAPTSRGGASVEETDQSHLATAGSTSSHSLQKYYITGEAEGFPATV

[11] = target: T8, Zinc finger protein mex-5 (Caenorhabditis elegans, UniProt Q9XUB2); experiment: potency of MEX-5 RNA-binding blockers – biochemical, C. elegans, fluorescence polarization, dose response (AID 1960)
T8 sequence (Q9XUB2 whole entry): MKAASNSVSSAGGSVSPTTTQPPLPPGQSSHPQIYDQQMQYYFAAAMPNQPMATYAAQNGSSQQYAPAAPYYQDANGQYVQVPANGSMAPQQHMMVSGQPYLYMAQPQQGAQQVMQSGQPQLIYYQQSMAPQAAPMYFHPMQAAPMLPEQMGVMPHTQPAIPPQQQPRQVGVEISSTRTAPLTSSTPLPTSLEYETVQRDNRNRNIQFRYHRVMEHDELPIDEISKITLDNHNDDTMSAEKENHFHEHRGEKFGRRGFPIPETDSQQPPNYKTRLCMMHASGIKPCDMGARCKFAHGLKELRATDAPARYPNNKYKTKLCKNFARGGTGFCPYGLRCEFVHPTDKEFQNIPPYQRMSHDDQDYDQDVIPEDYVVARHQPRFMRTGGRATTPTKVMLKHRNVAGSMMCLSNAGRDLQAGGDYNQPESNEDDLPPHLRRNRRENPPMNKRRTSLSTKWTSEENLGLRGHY

[12] = target: T9, RNA-binding protein pos-1 (Caenorhabditis elegans, UniProt G5EF15); experiment: disruptors of C. elegans POS-1 RNA interaction – biochemical, fluorescence polarization, dose response (AID 1964);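 also: purified POS-1 fused to maltose binding protein made in E. coli; potency of compounds blocking POS-1 binding to fluorescent RNA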
T9 sequence (G5EF15 whole entry): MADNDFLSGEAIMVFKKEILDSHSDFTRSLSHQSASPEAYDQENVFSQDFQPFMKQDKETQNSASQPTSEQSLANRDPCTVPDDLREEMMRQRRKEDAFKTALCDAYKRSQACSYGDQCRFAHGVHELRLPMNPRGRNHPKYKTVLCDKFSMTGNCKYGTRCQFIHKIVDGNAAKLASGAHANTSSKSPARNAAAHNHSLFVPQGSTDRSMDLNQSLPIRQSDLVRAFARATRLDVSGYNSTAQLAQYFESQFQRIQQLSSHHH

Genome polyprotein, sequence (P29990 2492-3391 limits assumed): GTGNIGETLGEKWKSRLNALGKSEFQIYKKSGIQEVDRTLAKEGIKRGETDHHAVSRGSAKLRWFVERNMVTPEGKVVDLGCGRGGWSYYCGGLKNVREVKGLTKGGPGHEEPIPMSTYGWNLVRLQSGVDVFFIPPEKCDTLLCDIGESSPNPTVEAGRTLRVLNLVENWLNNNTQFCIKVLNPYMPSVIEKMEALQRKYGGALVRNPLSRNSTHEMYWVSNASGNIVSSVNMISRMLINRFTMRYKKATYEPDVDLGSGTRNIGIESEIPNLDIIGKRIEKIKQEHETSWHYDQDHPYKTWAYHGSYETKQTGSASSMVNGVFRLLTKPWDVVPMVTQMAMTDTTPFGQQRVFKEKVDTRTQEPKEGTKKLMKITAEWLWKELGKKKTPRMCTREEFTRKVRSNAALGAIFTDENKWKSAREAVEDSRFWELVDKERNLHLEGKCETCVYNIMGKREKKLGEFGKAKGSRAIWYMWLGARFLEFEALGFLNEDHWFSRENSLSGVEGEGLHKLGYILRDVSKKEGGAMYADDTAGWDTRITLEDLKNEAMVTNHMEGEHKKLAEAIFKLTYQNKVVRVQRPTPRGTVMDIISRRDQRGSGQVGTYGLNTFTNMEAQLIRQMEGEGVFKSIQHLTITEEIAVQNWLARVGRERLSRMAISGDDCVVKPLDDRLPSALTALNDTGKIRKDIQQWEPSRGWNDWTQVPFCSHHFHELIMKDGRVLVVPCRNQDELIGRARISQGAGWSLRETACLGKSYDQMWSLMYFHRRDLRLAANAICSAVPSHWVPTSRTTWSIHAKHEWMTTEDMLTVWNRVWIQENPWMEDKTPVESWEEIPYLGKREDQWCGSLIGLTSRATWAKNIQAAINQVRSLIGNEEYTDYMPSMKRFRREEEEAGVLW
Paired box protein Pax-8, sequence (Q06710 whole entry): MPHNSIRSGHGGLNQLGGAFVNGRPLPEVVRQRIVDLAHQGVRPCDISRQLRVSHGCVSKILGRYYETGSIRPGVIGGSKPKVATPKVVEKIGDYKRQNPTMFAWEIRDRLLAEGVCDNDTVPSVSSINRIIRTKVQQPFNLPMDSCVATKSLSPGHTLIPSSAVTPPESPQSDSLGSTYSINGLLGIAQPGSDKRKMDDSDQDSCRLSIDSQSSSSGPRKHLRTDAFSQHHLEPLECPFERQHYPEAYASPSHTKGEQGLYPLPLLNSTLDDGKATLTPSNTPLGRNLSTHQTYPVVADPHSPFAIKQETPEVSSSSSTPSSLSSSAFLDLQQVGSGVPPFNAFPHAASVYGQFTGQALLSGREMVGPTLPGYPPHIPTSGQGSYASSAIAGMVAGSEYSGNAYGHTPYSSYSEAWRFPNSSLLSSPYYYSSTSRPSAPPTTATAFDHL
ATP-dependent molecular chaperone HSP82, sequence (C4YTQ8 whole entry): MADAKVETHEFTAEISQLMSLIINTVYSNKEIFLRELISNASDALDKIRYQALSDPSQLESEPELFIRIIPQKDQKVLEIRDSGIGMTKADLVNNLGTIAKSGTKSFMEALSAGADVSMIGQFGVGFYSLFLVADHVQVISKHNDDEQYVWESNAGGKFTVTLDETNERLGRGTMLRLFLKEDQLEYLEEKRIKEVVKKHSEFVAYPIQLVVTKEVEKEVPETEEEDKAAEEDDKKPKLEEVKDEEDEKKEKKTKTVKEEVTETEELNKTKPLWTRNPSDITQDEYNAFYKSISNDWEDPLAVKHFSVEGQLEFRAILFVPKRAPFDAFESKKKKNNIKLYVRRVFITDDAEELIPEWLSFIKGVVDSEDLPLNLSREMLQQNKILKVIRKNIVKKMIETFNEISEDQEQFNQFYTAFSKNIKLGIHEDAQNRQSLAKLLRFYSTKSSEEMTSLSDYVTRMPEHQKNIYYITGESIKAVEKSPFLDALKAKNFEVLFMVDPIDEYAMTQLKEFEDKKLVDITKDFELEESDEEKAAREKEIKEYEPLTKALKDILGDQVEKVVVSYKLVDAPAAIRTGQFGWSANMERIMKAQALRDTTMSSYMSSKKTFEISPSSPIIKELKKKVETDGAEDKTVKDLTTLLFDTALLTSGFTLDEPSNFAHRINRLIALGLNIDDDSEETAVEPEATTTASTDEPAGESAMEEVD

C[C@@H]1CCCCO[C@@H](CN(C)Cc2ccc(C(=O)Nc3ccccc3N)cc2)[C@@H](C)CN([C@H](C)CO)C(=O)c2cc(NS(C)(=O)=O)ccc2O1
AC50 [1]: 4.5 µM (active)

O=C1C(C23CC4CC(CC(C4)C2)C3)C(=O)N(c2ccccc2)N1c1ccccc1
Ki (fMet-Leu-Phe receptor): 11.5 µM (active)

CCOC(=O)c1c(NC(=O)C2C3C=CC(C3)C2(C)C(=O)O)sc2c1CCCC2 (centres undefined)
IC50 [2]: 16.1 µM (active) | IC50 (Leucine aminopeptidase): 8.1 µM (active)

C[C@@H]1CN([C@H](C)CO)C(=O)c2cc(NC(=O)Nc3cccc4ccccc34)ccc2O[C@@H]1CN(C)Cc1ccc(C(F)(F)F)cc1
AC50 [1]: 2.44 µM (active)

O=S(=O)(c1ccccc1)N1CCCCN2[C@H](CO)[C@H](c3ccc(-c4ccccc4F)cc3)[C@H]2C1
AC50 (Paired box protein Pax-8): 33.7 µM (active) | AC50 [3]: > 70 µM (inactive)

CCOC(=O)[C@H]1[C@H]2COc3ccccc3[C@@H]2N2C(=O)CN(Cc3ccc(C)cc3)C(=O)[C@@]12C
EC50 [4]: > 99 µM (inactive) | EC50 [5]: > 99 µM (inactive)

O=C(NCc1ccccc1)c1sc(=S)n2c1[nH]c(=O)c1ccccc12
IC50 (Genome polyprotein): 77 µM (active) | IC50 [6]: 22 µM (active) | EC50 [7]: > 180 µM (inactive) | EC50 [8]: > 150 µM (inactive) | EC50 [9]: 0.706 µM (active) | EC50 [10]: 6.61 µM (active)

C[C@H](CO)N1C[C@H](C)[C@@H](CN(C)Cc2ccc(C(F)(F)F)cc2)Oc2ccc(NS(=O)(=O)c3ccc(F)cc3)cc2C1=O
AC50 [1]: 3.48 µM (active)

COc1ccc(OCCC(=O)OCC(=O)NCc2ccco2)cc1
IC50 [2]: 9.12 µM (active) | IC50 (Estrogen receptor): 33.3 µM (not active)

COc1ccc(CN(C)C[C@@H]2OCCCC[C@@H](C)Oc3ccc(NC(=O)Nc4ccc(C(F)(F)F)cc4)cc3C(=O)N([C@@H](C)CO)C[C@H]2C)cc1
AC50 (Paired box protein Pax-8): 8.11 µM (active) | AC50 [3]: > 70 µM (inactive)

CCCCN1CC(=O)N2[C@@H]3c4cc(Br)ccc4OC[C@@H]3[C@H](C(=O)OCC)[C@]2(C)C1=O
EC50 [4]: > 99 µM (inactive) | EC50 [5]: 39.6 µM (inactive)

C[C@@H]1CN([C@H](C)CO)C(=O)c2cccc(NC(=O)Nc3ccc(C(F)(F)F)cc3)c2O[C@@H]1CN(C)Cc1ccc(Oc2ccccc2)cc1
AC50 [1]: 7.23 µM (active)

COc1ccc(NC(=O)Nc2ccc3c(c2)CC(=O)N([C@H](C)CO)C[C@@H](C)[C@@H](CN(C)Cc2ccc(C(=O)Nc4ccccc4N)cc2)O3)cc1
AC50 [1]: 2.16 µM (active)

CC(=O)c1sc2nc(-c3cccs3)cc(C(F)(F)F)c2c1N
EC50 [4]: > 99 µM (inactive) | EC50 [11]: > 300 µM (not active) | EC50 [12]: 45.9 µM (active) | EC50 [5]: 22.3 µM (inactive)

O=C(COc1cccc2ccccc12)Nc1cc(Cl)ccc1C(=O)O
IC50 (Genome polyprotein): 40.5 µM (active)

Source: ChEMBL document CHEMBL1201862, “PubChem BioAssay data set” (2004)
